What was measured:
[1] = tested on: serum LH, FSH, oestradiol and progesterone; assay: Intranasal kisspeptin-54, reproductive hormone profiles in patients with hypothalamic amenorrhoea; type: in vivo, human
Method: This was a randomised, double-blinded, crossover, placebo-controlled clinical study (Fig. 1, Fig. 2, Fig. 3a). Participants were admitted to the Clinical Research Unit (Imperial College Healthcare NHS Trust) and completed five (in healthy men) or two (in healthy women and patients with HA) study visits. […] Study visits in healthy women were conducted in the follicular phase of the menstrual cycle (i.e., days 2–10 inclusive) to control for changes in reproductive hormones over the course of the cycle and were conducted across two different menstrual cycles to allow washout.
All studies commenced at 08:00 to control for circadian hormonal changes. Participants were instructed to abstain from alcohol, caffeine, and sexual activities from 22:00 preceding each study visit. On arrival, an intravenous cannula was inserted into one antecubital fossa, and blood was sampled at timepoints −30, −15, and 0 min, before intranasal administration of kisspeptin-54 or 0.9% saline (placebo). Following participant education (described below), healthy men self-administered the following 5 interventions under supervision in random order via the intranasal route: 3.2, 6.4, 12.8, and 25.6 nmol/kg of kisspeptin-54, or placebo. Healthy women and patients with HA attended for the same protocol comparing 12.8 nmol/kg of kisspeptin-54 and placebo in random order. After administration of kisspeptin-54 or placebo at timepoint 0 min, serum levels of LH, FSH, and testosterone (in men), or oestradiol and progesterone (in women) were measured every 15 min for 4 h. Heart rate, blood pressure, and the presence of adverse symptoms were recorded every 15 min.
Kisspeptin-54 or placebo was self-administered using nasal spray devices that delivered a single volume of 100 μL per actuation (SP270+ pump, 3959 actuator, 5 mL SGD U-Save glass bottles provided by Nemera, La Verpillière, France). The kisspeptin-54 nasal spray solution formulations were prepared by reconstituting kisspeptin-54 powder stored in sterile vials on the morning of each study visit to produce a solution containing the target dose according to body weight in 400 μL.
Participants were familiarised with the procedure of intranasal application and were provided with written administration instructions ahead of each study visit, as described in.[38] In addition, participants received a 5-min training session using a dummy nasal spray device before starting the study to ensure good technique, which all participants easily understood. Under instruction and supervision from the clinical team, participants primed the nasal sprays then self-administered a total of four sprays of kisspeptin-54 or placebo per visit (i.e., 4 × 100 μL), alternating between nostrils and leaving 60 s between sprays, to allow satisfactory dissipation and avoid solution running out of the nostrils. Nasal sprays containing kisspeptin or placebo were identical in appearance, volume, and administration technique.
Blood samples were collected to measure serum reproductive hormone levels at the timepoints depicted in Fig. 1, Fig. 2, Fig. 3a. Serum samples were stored at −20 °C until analysis. Serum LH, FSH, testosterone (in men), and oestradiol and progesterone (in women) were measured using automated chemiluminescent immunoassays (Abbott Diagnostics, Maidenhead, UK: LH catalogue # 2P40-25, FSH catalogue # 7K75-25, testosterone catalogue # 07K7320, oestradiol catalogue # 7K72-25, progesterone catalogue # 7K77-25). Reference ranges: LH in international units per litre (IU/L), 2–12 (men), 2–10 (follicular), 20–60 (mid-cycle), 4–14 (luteal); FSH in IU/L, 1.7–8 (men), 1.5–8.0 (follicular and luteal), 10–50 (mid-cycle); in men: testosterone in nanomoles per litre (nmol/L), 10–30; and in women: oestradiol in picomoles per litre (pmol/L), <300 (early follicular), 400–1500 (mid-cycle), 200–1000 (luteal) and progesterone in nmol/L, <5.0 (follicular), 3.5–67 (luteal). […]

[2] = Stability of kisspeptin-54 solutions for nasal delivery; type: physicochemical; settings: 2 M HCL or phosphate buffer at 60 °C for 72 h, HPLC-UV
[3] = intranasal 12.8 nmol/kg, N = 10 (HA) and N = 12 (healthy women)
[4] = intranasal 12.8 nmol/kg, unpaired t-test, N = 10 (HA) and N = 12 (healthy women)
[5] = patients with HA, intranasal 12.8 nmol/kg vs placebo, paired t-test, N = 10
[6] = patients with HA, intranasal 12.8 nmol/kg, two-way ANOVA, 4 h time profile, N = 10
[7] = patients with hypothalamic amenorrhoea, intranasal 12.8 nmol/kg, 4 h sampling, mean ± SEM, N = 10
[8] = patients with hypothalamic amenorrhoea, intranasal 12.8 nmol/kg, mean ± SEM, N = 10

With Kisspeptin-54 the “Maximal FSH increase, patients with HA relative to healthy women” value [1, 3] was “over 10 fold”, the “Maximal LH increase, patients with HA relative to healthy women” value [1, 3] was “over 3 fold” and the “Maximal FSH increase, mean difference patients with HA vs healthy women” value [1, 4] was 2.77 IU/L. For the same substance, the “Maximal LH increase, mean difference patients with HA vs healthy women” value [1, 4] was 2.95 IU/L, the “FSH AUC, mean difference vs placebo” value [1, 5] was 580.0 h·IU/L and the “FSH maximum increase, mean difference vs placebo” value [1, 5] was 3.1 IU/L. The “LH AUC, mean difference vs placebo” value [1, 5] was 756.9 h·IU/L, the “LH maximum increase, mean difference vs placebo” value [1, 5] was 4.3 IU/L and the “Time of maximal stimulation of serum LH post-administration” value ([1]; patients with HA, intranasal 12.8 nmol/kg, N = 10) was 30 to 45 min. The “Effect on circulating oestradiol and progesterone levels” value ([1]; patients with HA, intranasal 12.8 nmol/kg, acute 4-h time-course, N = 10) was “no significant effects”, the “Serum FSH over time, mean difference vs placebo” value [1, 6] was 2.35 IU/L and the “Serum LH over time, mean difference vs placebo” value [1, 6] was 3.0 IU/L. For the same substance, the “AUC of the change in serum FSH” value [1, 7] was 474.9 ± 237.3 h·IU/L, the “AUC of the change in serum LH” value [1, 7] was 600.6 ± 146.7 h·IU/L and the “Maximum increase from baseline in serum FSH” value [1, 8] was 3.1 ± 0.3 IU/L. The “Maximum increase from baseline in serum LH” value [1, 8] was 4.4 ± 0.2 IU/L and the “Forced degradation (HPLC assay specificity)” value [2] was “loss or reduction of the kisspeptin peak”.

Source: publication PMC12018048, “Intranasal kisspeptin administration rapidly stimulates gonadotropin release in humans” (eBioMedicine, 2025)
